Data set [1] is described as follows: H+/Na+ transport assay of bead-derived peptides (one-point).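 Further: relative to parent gramicidin A activity set to 1.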 The data set is classed as biochemical. On the set-up: key: relative activity; mean of two control wells = 1.00. As to conditions: bead-derived peptide solution, EYPC/EYPG LUVs. Put shortly:
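Pyranine (1.0 mM)-loaded LUVs containing egg yolk phosphatidylglycerol were prepared by film hydration, sonication and extrusion, then mixed with diluted bead-derived peptide in 96-well format and vortexed 30 min at room temperature. Fluorescence was normalized between untreated LUVs (0%) and Triton X-100 lysis (100%).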

Data set [2] relates to Streptococcus pyogenes SSI-9. Put plainly: Antibacterial activity assay of bead-derived peptides (three concentrations). The data set is classed as cell-based. On the set-up: key: +++: inhibition by the 640-fold diluted peptide solution; ++: inhibition by the 160-fold diluted solution; +: inhibition by the 40-fold diluted solution; -: no inhibition. To be noted: S. pyogenes, bead-derived peptide solution, three concentrations. Put shortly:
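First, each peptide stock was diluted 4- and 16-fold in DMSO; next, the three solutions were mixed with S. pyogenes SSI-9 suspension (2 × 10^5 CFU) in cation-adjusted Mueller Hinton Broth plus 5% laked horse blood; finally, plates stood 18 h at 37 °C before checking for grown-cell precipitation.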

The conditions of data set [3]: cell viability/%. The method, boiled down: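 Peptide stocks diluted 250× in growth medium; P388 cells 1 × 10^4 cells/mL final; 37 °C, 5% CO2, 92 h. WST-1 + 1-methoxy PMS, 4 h, A415. Output: % viability.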

Where a SMILES comes first, the peptide text is derived from it. [ ]: non-standard residue; d: D form. The star is where a group is joined. NHCH2CH2OH = OCCN*; For = O=C*

For orientation: viability means a read-out of living cells in per cent, often relative to untreated cells. `CC(C)C[C@@H](NC(=O)[C@H](C)NC(=O)[C@H](NC(=O)[C@H](C)NC(=O)CNC(=O)[C@@H](NC=O)C(C)C)C(C)C)C(=O)N[C@H](C(=O)N[C@H](CC(C)C)C(=O)N[C@@H](Cc1c[nH]c2ccccc12)C(=O)N[C@H](CC(C)C)C(=O)N[C@@H](Cc1c[nH]c2ccccc12)C(=O)N[C@H](CC(C)C)C(=O)N[C@@H](Cc1c[nH]c2ccccc12)C(=O)N[C@H](CC(C)C)C(=O)N[C@@H](Cc1c[nH]c2ccccc12)C(=O)NCCO)C(C)C` [compound 527] (For-VGA[dV]A[dL]V[dL]W[dL]W[dL]W[dL]W-NHCH2CH2OH): the “H+/Na+ transport activity normalized against the value of 1 (1.00)” value (“H+/Na+ transport activity normalized” for short) in data set [1] is 1.16. Also, the antibacterial activity entry in data set [2] is “++”. Further, the viability in data set [3] is 5.9%.
The like results for `CC(C)[C@H](NC=O)C(=O)NCC(=O)N[C@@H](C)C(=O)N[C@@H](C(=O)N[C@@H](C)C(=O)N[C@@H](C(=O)N[C@H](C(=O)N[C@@H](C(=O)N[C@@H](Cc1c[nH]c2ccccc12)C(=O)N[C@@H](C(=O)N[C@@H](Cc1c[nH]c2ccccc12)C(=O)N[C@@H](C(=O)N[C@@H](Cc1c[nH]c2ccccc12)C(=O)N[C@@H](C(=O)N[C@@H](Cc1c[nH]c2ccccc12)C(=O)NCCO)C(C)C)C(C)C)[C@H](C)O)C(C)C)C(C)C)C(C)C)C(C)C` [compound 532] (For-VGA[dV]A[dV]V[dV]W[dT]W[dV]W[dV]W-NHCH2CH2OH) were, in that order, 1.03, “-” and 100%.
Consider `CNC(=O)C[C@@H](NC(=O)[C@@H](NC(=O)[C@@H](CC(C)C)NC(=O)[C@H](C)NC(=O)[C@H](NC(=O)[C@H](C)NC(=O)CNC(=O)[C@@H](NC=O)C(C)C)C(C)C)C(C)C)C(=O)N[C@@H](Cc1c[nH]c2ccccc12)C(=O)N[C@@H](C(=O)N[C@@H](Cc1c[nH]c2ccccc12)C(=O)N[C@H](CC(C)C)C(=O)N[C@@H](Cc1c[nH]c2ccccc12)C(=O)N[C@H](CC(C)C)C(=O)N[C@@H](Cc1c[nH]c2ccccc12)C(=O)NCCO)C(C)C` [compound 603] (For-VGA[dV]A[dL]V[dD](NHMe)W[dV]W[dL]W[dL]W-NHCH2CH2OH), for which, in data set [1], the “H+/Na+ transport activity normalized” value is 1.10. The antibacterial activity entry in data set [2] is on record as “-”. For the same compound, the viability in data set [3] is 100%.
Turning to `CC(C)C[C@@H](NC(=O)[C@H](C)NC(=O)CNC(=O)[C@@H](NC=O)C(C)C)C(=O)N[C@@H](C)C(=O)N[C@@H](C(=O)N[C@H](C(=O)N[C@H](CC(C)C)C(=O)N[C@@H](Cc1c[nH]c2ccccc12)C(=O)N[C@@H](C(=O)N[C@@H](Cc1c[nH]c2ccccc12)C(=O)N[C@H](CC(C)C)C(=O)N[C@@H](Cc1c[nH]c2ccccc12)C(=O)N[C@H](CC(C)C)C(=O)N[C@@H](Cc1c[nH]c2ccccc12)C(=O)NCCO)C(C)C)C(C)C)[C@H](C)O` [compound 611] (For-VGA[dL]A[dT]V[dL]W[dV]W[dL]W[dL]W-NHCH2CH2OH), the “H+/Na+ transport activity normalized” value in data set [1] is reported as 1.05. The antibacterial activity entry in data set [2] was “-”. The same compound had a viability in data set [3] of 100%.
The like results for `CC(C)C[C@@H](NC(=O)[C@H](Cc1c[nH]c2ccccc12)NC(=O)[C@H](NC(=O)[C@@H](NC(=O)[C@H](NC(=O)[C@H](C)NC(=O)[C@H](NC(=O)[C@H](C)NC(=O)CNC(=O)[C@@H](NC=O)C(C)C)[C@H](C)O)C(C)C)C(C)C)C(C)C)C(=O)N[C@@H](Cc1c[nH]c2ccccc12)C(=O)N[C@@H](C(=O)N[C@@H](Cc1c[nH]c2ccccc12)C(=O)N[C@@H](C(=O)N[C@@H](Cc1c[nH]c2ccccc12)C(=O)NCCO)C(C)C)C(C)C` [compound 629] (For-VGA[dT]A[dV]V[dV]W[dL]W[dV]W[dV]W-NHCH2CH2OH) were, in that order, 1.12, “-” and 100%.
The like results for `CC(C)C[C@@H](NC(=O)[C@H](C)NC(=O)CNC(=O)[C@@H](NC=O)C(C)C)C(=O)N[C@@H](C)C(=O)N[C@@H](C(=O)N[C@H](C(=O)N[C@@H](C(=O)N[C@@H](Cc1c[nH]c2ccccc12)C(=O)N[C@@H](C(=O)N[C@@H](Cc1c[nH]c2ccccc12)C(=O)N[C@@H](C(=O)N[C@@H](Cc1c[nH]c2ccccc12)C(=O)N[C@@H](C(=O)N[C@@H](Cc1c[nH]c2ccccc12)C(=O)NCCO)C(C)C)C(C)C)C(C)C)C(C)C)C(C)C)C(C)C` [compound 725] (For-VGA[dL]A[dV]V[dV]W[dV]W[dV]W[dV]W-NHCH2CH2OH) were, in that order, 1.10, “+” and 100%.
`CC(C)C[C@@H](NC(=O)[C@H](C)NC(=O)CNC(=O)[C@@H](NC=O)C(C)C)C(=O)N[C@@H](C)C(=O)N[C@@H](C(=O)N[C@H](C(=O)N[C@@H](C(=O)N[C@@H](Cc1c[nH]c2ccccc12)C(=O)N[C@@H](C(=O)N[C@@H](Cc1c[nH]c2ccccc12)C(=O)N[C@@H](C(=O)N[C@@H](Cc1c[nH]c2ccccc12)C(=O)N[C@@H](C(=O)N[C@@H](Cc1c[nH]c2ccccc12)C(=O)NCCO)[C@H](C)O)C(C)C)C(C)C)C(C)C)C(C)C)C(C)C` [compound 762] (For-VGA[dL]A[dV]V[dV]W[dV]W[dV]W[dT]W-NHCH2CH2OH): the “H+/Na+ transport activity normalized” value in data set [1] stood at 1.01. Also, the antibacterial activity entry in data set [2] is listed as “-”. Moreover, in data set [3], the viability was 96.8%.
Take `CC(C)C[C@@H](NC(=O)[C@H](C)NC(=O)CNC(=O)[C@@H](NC=O)C(C)C)C(=O)N[C@@H](C)C(=O)N[C@H](CC(C)C)C(=O)N[C@H](C(=O)N[C@H](CC(C)C)C(=O)N[C@@H](Cc1c[nH]c2ccccc12)C(=O)N[C@@H](C(=O)N[C@@H](Cc1c[nH]c2ccccc12)C(=O)N[C@H](CC(C)C)C(=O)N[C@@H](Cc1c[nH]c2ccccc12)C(=O)N[C@@H](C(=O)N[C@@H](Cc1c[nH]c2ccccc12)C(=O)NCCO)[C@H](C)O)C(C)C)C(C)C` [compound 770] (For-VGA[dL]A[dL]V[dL]W[dV]W[dL]W[dT]W-NHCH2CH2OH): the “H+/Na+ transport activity normalized” value in data set [1] is 1.11. Besides, in data set [2], the antibacterial activity entry is reported as “-”. Further, the viability in data set [3] was 100%.
On to `CC(C)C[C@@H](NC(=O)[C@H](C)NC(=O)[C@H](NC(=O)[C@H](C)NC(=O)CNC(=O)[C@@H](NC=O)C(C)C)[C@H](C)O)C(=O)N[C@H](C(=O)N[C@H](CC(C)C)C(=O)N[C@@H](Cc1c[nH]c2ccccc12)C(=O)N[C@H](CC(C)C)C(=O)N[C@@H](Cc1c[nH]c2ccccc12)C(=O)N[C@@H](C(=O)N[C@@H](Cc1c[nH]c2ccccc12)C(=O)N[C@H](CC(C)C)C(=O)N[C@@H](Cc1c[nH]c2ccccc12)C(=O)NCCO)C(C)C)C(C)C` [compound 789] (For-VGA[dT]A[dL]V[dL]W[dL]W[dV]W[dL]W-NHCH2CH2OH), for which the “H+/Na+ transport activity normalized” value in data set [1] is given as 1.08. The antibacterial activity result in data set [2] is given as “-”. For the same compound, the viability in data set [3] was found to be 100%.
For `CC(C)C[C@@H](NC(=O)[C@@H](NC(=O)[C@H](NC(=O)[C@H](C)NC(=O)[C@H](NC(=O)[C@H](C)NC(=O)CNC(=O)[C@@H](NC=O)C(C)C)C(C)C)C(C)C)C(C)C)C(=O)N[C@@H](Cc1c[nH]c2ccccc12)C(=O)N[C@@H](C(=O)N[C@@H](Cc1c[nH]c2ccccc12)C(=O)N[C@@H](C(=O)N[C@@H](Cc1c[nH]c2ccccc12)C(=O)N[C@@H](C(=O)N[C@@H](Cc1c[nH]c2ccccc12)C(=O)NCCO)C(C)C)C(C)C)C(C)C` [compound 885] (For-VGA[dV]A[dV]V[dL]W[dV]W[dV]W[dV]W-NHCH2CH2OH), the “H+/Na+ transport activity normalized” value in data set [1] was found to be 1.03. Also, in data set [2], the antibacterial activity entry is “-”. In data set [3], the viability amounted to 93.4%.
The like results for `CNC(=O)C[C@@H](NC(=O)[C@@H](NC(=O)[C@H](NC(=O)[C@H](C)NC(=O)[C@H](NC(=O)[C@H](C)NC(=O)CNC(=O)[C@@H](NC=O)C(C)C)C(C)C)C(C)C)C(C)C)C(=O)N[C@@H](Cc1c[nH]c2ccccc12)C(=O)N[C@@H](C(=O)N[C@@H](Cc1c[nH]c2ccccc12)C(=O)N[C@H](CC(C)C)C(=O)N[C@@H](Cc1c[nH]c2ccccc12)C(=O)N[C@H](CC(C)C)C(=O)N[C@@H](Cc1c[nH]c2ccccc12)C(=O)NCCO)C(C)C` [compound 903] (For-VGA[dV]A[dV]V[dD](NHMe)W[dV]W[dL]W[dL]W-NHCH2CH2OH) were, in that order, 1.15, “-” and 89.7%.
For `CC(C)C[C@@H](NC(=O)[C@H](C)NC(=O)CNC(=O)[C@@H](NC=O)C(C)C)C(=O)N[C@@H](C)C(=O)N[C@H](CC(C)C)C(=O)N[C@H](C(=O)N[C@@H](C(=O)N[C@@H](Cc1c[nH]c2ccccc12)C(=O)N[C@@H](C(=O)N[C@@H](Cc1c[nH]c2ccccc12)C(=O)N[C@@H](C(=O)N[C@@H](Cc1c[nH]c2ccccc12)C(=O)N[C@H](CC(C)C)C(=O)N[C@@H](Cc1c[nH]c2ccccc12)C(=O)NCCO)C(C)C)C(C)C)C(C)C)C(C)C` [compound 905] (For-VGA[dL]A[dL]V[dV]W[dV]W[dV]W[dL]W-NHCH2CH2OH) the same measures were 1.19, “+” and 90.6%.

For the origin of these results see article PMC7531004, “Discovery of gramicidin A analogues with altered activities by multidimensional screening of a one-bead-one-compound library” (Nature Communications, 2020).
